Measured values: article PMC12916490 (Molecular Psychiatry, 2025)

Assays:
hDAT = target: T1, hDAT (Homo sapiens, UniProt Q01959); assay: Radioligand binding, hDAT ([3H]WIN35,428)
T1 construct: expressed in transfected cells; host or cells: HEK 293 cells (membrane preparation)
Method: Binding affinities at human monoamine receptors and transporters were assessed as previously reported. A detailed description of the methodology is provided in the Supplementary information.
The IC50 values from the radioligand binding assays were determined by nonlinear regression, using three independent concentration-response curves fitted to a one-site model. The Cheng-Prusoff equation was used to calculate Kᵢ values for the competing ligands. EC50 values were determined by applying nonlinear regression to concentration-response curves. Bias factors (β) were calculated based on the relative intrinsic activity approach. More detailed information can be found in the Supplementary information. Mean values for total number of HTR, change in body temperature from pre to post session (Δ°C), and total distance traveled (cm) for each drug dose were compared (p < 0.05) via Welch’s ANOVA with Dunnett’s T3 post test, comparing all doses to respective vehicle controls (0 mg/kg). Welch’s ANOVA with Dunnett’s T3 post test was also used to compare drug concentrations, but the data were compared to DOM in this case. Dose–response relationships for HTR and locomotor activities were plotted using bell-shaped curve fits, while temperature change data were plotted using four-parameter non-linear regression curve fits. The ascending phase of the HTR curve for each drug was used to determine ED50 potency values from four parameter non-linear regression fits. For combined DOM and DOAM administration, the plasma, brain tissue, and brain dialysate drug concentrations were compared using paired t-tests (p < 0.05).
3.1 Assessment of receptor and transporter binding affinities
Membrane preparations were prepared from cells transfected with the respective target. The membrane preparations were then incubated with selective radioligands at concentrations equal to the corresponding Kd and displacement of the ligand by the drugs was measured. The difference between total binding and nonspecific binding (determined in the presence of selective competitors) was defined as specific binding of the radioligand to the target receptor. The following transfected cell lines were used for the binding assays: HEK 293 cells (h5-HT1A, h5-HT2A, h5-HT2B, h5-HT2C, and hD2 receptors, hDAT, hNET, and hSERT), Chinese hamster ovary cells (hα 1A receptor), and Chinese hamster lung cells (hα 2A receptor).
3.1.1 Membrane preparations for receptor and transporter binding
For producing membrane preparations, transfected cells were harvested with trypsin/EDTA, washed with ice-cold phosphate buffered saline, and then pelleted by centrifugation (210 × g for 5 min at 4 °C). The pellets were frozen and stored at -80 °C until use. Frozen pellets were resuspended in 20 m L (receptor binding) or 400 m L (transporter binding) buffer (20 mM HEPES -NaOH, 10 mM EDTA, pH 7.4), and homogenized at 1,100 × g for 20 s (receptor binding) or 560 × g for 15 s (transporter binding); the homogenates were then centrifuged at 48,000 × g for 30 min at 4 °C. For receptor binding assays, the supernatants were discarded and the pellets were resuspended in 20 mL buffer (20 mM HEPES-NaOH, 0.1 mM EDTA, pH 7.4) and homogenized at 1 ,100 × g for 20 s. Centrifugation and discarding of the supernatant were repeated once, and the final pellet was then resuspended in buffer and homogenized.
3.1.2 Serotonin 5-HT1A and 5-HT2A receptor binding
Competitive binding at the h5-HT1A and h5-HT2A receptor was determined using 0.90 nM [ 3H]8-hydroxy-2-(di-n-propylamine)tetralin ([ 3H]8-OH-DPAT; h5-HT1A receptor agonist) and 0.40 nM [3H]ketanserin (h5-HT2 receptor antagonist) as radioligands. […]
binding of the radioligands was defined as difference between total binding (binding buffer alone) and nonspecific binding determined in the presence of 10 μM pindolol (h5-HT1A receptor antagonist) or 10 μM spiperone (h 5-HT2A receptor antagonist).

Human = test system: Human; design: method as in ref 48 (PiHKAL: A Chemical Love Story); conditions: ref 48 (PiHKAL: A Chemical Love Story); cited from earlier work
[1] = hDAT Ki, mean (95% CI), HEK 293 membranes

T1 sequence (Q01959 whole entry): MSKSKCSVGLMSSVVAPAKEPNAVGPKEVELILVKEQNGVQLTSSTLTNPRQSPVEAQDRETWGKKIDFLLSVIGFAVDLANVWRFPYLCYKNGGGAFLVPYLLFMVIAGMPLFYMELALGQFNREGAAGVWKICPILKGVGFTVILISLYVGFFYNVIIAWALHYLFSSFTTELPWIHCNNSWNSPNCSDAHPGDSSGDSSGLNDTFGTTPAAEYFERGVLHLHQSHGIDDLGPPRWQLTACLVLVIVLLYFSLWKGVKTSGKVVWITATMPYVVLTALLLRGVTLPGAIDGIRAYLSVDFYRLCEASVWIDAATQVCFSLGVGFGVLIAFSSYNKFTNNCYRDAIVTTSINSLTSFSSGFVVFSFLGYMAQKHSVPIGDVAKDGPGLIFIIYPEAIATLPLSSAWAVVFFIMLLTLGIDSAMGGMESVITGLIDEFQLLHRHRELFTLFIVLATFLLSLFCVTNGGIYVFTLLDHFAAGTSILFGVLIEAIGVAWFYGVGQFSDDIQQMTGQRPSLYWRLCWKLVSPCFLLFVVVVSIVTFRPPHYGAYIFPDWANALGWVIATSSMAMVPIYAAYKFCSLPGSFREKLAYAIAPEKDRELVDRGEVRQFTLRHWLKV

Row | SMILES | Ki (hDAT; [1]) | Human dose (Human) | Ki (hDAT; Ki DAT, text value (range DAT and SERT 3.6–4.6))
1 | COc1ccc(OC)c(CC(C)N)c1.Cl (stereo not shown) [2,5-DMA, 2,5-Dimethoxyamphetamine hydrochloride] | > 8 µM | 80 to 160 mg | 
2 | CCCc1cc(OC)c(CC(C)N)cc1OC.Cl (stereo not shown) [DOPR, 4-propyl-2,5-dimethoxyamphetamine hydrochloride] | > 8 µM | 2.5 to 5.0 mg | 
3 | COc1cc(CC(C)N)c(OC)cc1C (stereo not shown) [DOM, 4-methyl-2,5-dimethoxyamphetamine] | > 8 µM | 3.0 to 10.0 mg | 
4 | CCCCc1cc(OC)c(CC(C)N)cc1OC (stereo not shown) [DOBU, 4-butyl-2,5-dimethoxyamphetamine] | > 8 µM | Uncertain | 
5 | CCc1cc(OC)c(CC(C)N)cc1OC (stereo not shown) [DOET, 4-ethyl-2,5-dimethoxyamphetamine] | > 8 µM | 2.0 to 6.0 mg | 
6 | CCCCCc1cc(OC)c(CC(C)N)cc1OC (stereo not shown) [DOAM, 4-amyl-2,5-dimethoxyamphetamine] | 3.64 µM | > 10 mg | 3.6 µM
